Experiments:
[1] = system: primary T cell and T cell line; assay: T cell activation (IL-2 release, CD69 expression); type: cell-based, mouse; settings: induced by MHC class I and class II-restricted antigens or PMA plus ionophore
Description: Cell apoptosis was detected with Annexin V/PI apoptosis detection Kit. Briefly, cells were stimulated with HSLs or left untreated. 6 hrs later, cells were collected and stained with Annexin VFITC and PI for 15 min at RT, then the apoptotic effect was measured by flow cytometry. OT-I or OT-II splenocytes were pulsed with specific peptides or PMA and ionomycin mixture with or without HSLs or TNF α plus cycloheximide. 24 hrs later, cells and supernatants were collected separately. For OT-I activation, cells were stained with CD69 and CD8. For OT-II activation, cells were stained with CD69 and CD4. Cell activation was measured by flow cytometry. All supernatants were detected for IL-2 secretion by ELISA.

EGFR [2] = assay: MSFQ, EGFR dimerization; type: cell-based, human; settings: in comparison with the carrier treatment
Description: Single molecule photo-bleaching step counting: 0.5 μg TNFR1(1-293)-peGFP-N1 plasmid or 0.5 μg EGFR-peGFP-N1 plasmid was transfected into HeLa cells and cultured for 5-6 hrs. Then the cells were stimulated with HSLs, TNF α, or left untreated, and washed twice with PBS and fixed with 4% paraformaldehyde before imaging. GFP was excited at 488 nm with a laser power of 5 mW measured after the laser passing through the objective. The collected fluorescent signal was gated by a band-pass filter HQ 525/50 (Chroma Technology). The EM gain of the EMCCD camera was set at 300. Movies of 400 frames were acquired for each sample at a full-frame rate of 10 Hz. For imaging analysis, the background fluorescence was firstly subtracted from the movie acquired from the fixed cells using the rolling ball method in Image J software, and regions of interest on movies were selected manually according to the outline of cells. To analyze the bleaching steps, the fluorescence time courses of each fluorescent spots were first constructed by Image J plugin and bleaching steps were then counted manually.

TNFR1 = target: T1, TNFR1 (Mus musculus, UniProt P25118); assay: Quantum dot-based single particle tracking, TNFR1; type: cell-based
T1 construct: To track individual TNFR1 on the cell membrane; endogenous in cells
T1 sequence (P25118 30-454): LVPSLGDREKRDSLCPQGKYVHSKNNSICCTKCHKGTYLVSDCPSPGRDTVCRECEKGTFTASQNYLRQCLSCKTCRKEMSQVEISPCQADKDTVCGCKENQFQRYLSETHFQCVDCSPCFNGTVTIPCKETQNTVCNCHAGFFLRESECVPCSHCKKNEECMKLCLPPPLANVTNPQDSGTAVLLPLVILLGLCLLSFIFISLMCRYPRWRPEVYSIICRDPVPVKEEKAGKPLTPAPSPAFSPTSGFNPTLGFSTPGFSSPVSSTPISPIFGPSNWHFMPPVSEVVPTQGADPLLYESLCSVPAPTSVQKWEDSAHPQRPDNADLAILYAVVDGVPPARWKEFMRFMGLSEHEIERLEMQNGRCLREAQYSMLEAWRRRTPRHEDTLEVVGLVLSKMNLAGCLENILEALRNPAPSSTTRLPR
Description: (§1) To track individual TNFR1 on the cell membrane, anti-TNFR1 IgG (was first papain digested to yield a Fab fragment. The Fab was then conjugated with biotin through the unique —SH at its C terminal. To prepare anti TNFR1 Fab QD conjugates, a solution of 0.7 nM anti TNFR1—Fab-biotin in 1 ml of DMEM was added drop-wise to 1 ml of 2 nM QD 605-streptavidin conjugate. Cell monolayers (50% confluent) previously serum starved for 1 hr were treated with 3OC12 HSL or left untreated and incubated with […] of the final anti TNFR1-Fab-QD solution at 25° C. for 2 min. The cells were then washed twice with PBS at 25° C., placed in serum-free medium, and loaded for imaging. For single-FcRγIIA tracking, Fc fragment was obtained by papain digestion of an anti-BSA IgG (Sigma Aldrich). Fc-QD conjugate was produced as described before. Cos-1 cells were transiently transfected with Fcγ RIIA plasmid, 24 hrs later, cells were stimulated with 3OC12 HSL or left untreated and incubated with […] of the final Fc-QD solution at 25° C. for 2 min. Quantum dot-labeled cells were imaged in TIRF mode. The fluorescence was excited at 488 nm and gated by a band-pass filter (575-640, Carl Zeiss). The excitation power was about 2 mW measured after the objective. Movies of 400 frames were acquired for each sample at a full-frame rate of 17 Hz. Individual trajectories were constructed by Utrack written in Matlab. Diffusion coefficient and plot area were calculated by customized programs written with Matlab. For motion pattern determination by MSD-t analysis 5: linear, simple Brownian diffusion; open-up parabolic, directed diffusion; open-down parabolic, restricted diffusion; and near zero, stationary.

[3] = Atomic force microscopy of reconstituted lipid domains; type: physicochemical
Description: […] The dried lipid film was resuspended with 4 mM HEPES buffer (with 150 mM NaCl) to produce SUV. Vesicle solution (100 μl) was added to freshly cleaved mica clamped in a fluid cell on the AFM heater head. After incubation at 55° C. for 30 min and then kept at RT for another 30 min, the bilayers were rinsed extensively with HEPES buffer to remove excess vesicles.
AFM images were obtained at RT on a NanoScope V Multimode Scanning Probe Microscope (Digital Instrument, Veeco, Santa Barbara, Calif., USA) in the tapping mode using V shape Si3N4 tips (model DNL-10) with spring constants of ˜0.35 N/m and resonance frequencies between 8 and 10 kHz in aqueous solutions. All experiments were conducted in Hepes buffer using a commercially available fluid cell, sealed by an O-ring. A J scanner (125 μm×125 μm) was used with a scan rate between 0.8 and 2 Hz per line.

EGFR [4] = assay: EGFR phosphorylation; type: cell-based; settings: in the absence of the ligand
Fcγ RIIA = assay: Quantum dot-based single particle tracking, Fcγ RIIA in Cos-1 cells; type: cell-based, human
Description: as §1

For CCCCCCCCCC(=O)CC(=O)N[C@H]1CCOC1=O [3OC12 HSL, N-(3-oxo-dodecanoyl) homoserine lactone], the “T cell activation measured by IL-2 release and CD69 expression” value [1] was “suppress”, the EGFR dimerization (EGFR [2]) was “increased the dimerization” and the TNFR1 diffusion coefficient (TNFR1) was “significantly increased”. The “TNFR1 x-y surface area coverage” value (TNFR1) was “high x-y surface area coverage”, the TNFR1 motion pattern (TNFR1; MSD analysis) was “more likely to fall into the simple mode of motion” and the “appearance of ordered lipid domains” value ([3]; domains with cholesterol and sphingolipids) was “clear dissolution of the elevated plains”. For the same compound, the “appearance of smaller domains unrelated to lipid rafts” value ([3]; mixture of DOPC and DPPG) was “minimally affected”, the EGFR phosphorylation (EGFR [4]) was “became detectable” and the “Fcγ RIIA motion pattern” value (Fcγ RIIA) was “higher percentage of Fcγ RIIA belonged to the simple and directed motions”. For the same compound, the “Fcγ RIIA diffusion coefficient” value (Fcγ RIIA; without 3OC12 HSL 0.1056) was 0.1564+/−0.006 and the “area covered by Fcγ RIIA motion tracks” value (Fcγ RIIA; without 3OC12 HSL 0.6467) was 0.9310+/−0.045.

Reference: US11583570B2, “Use of autoinducer-related pathway in inducing apoptosis and anti-infective therapy” (TSINGHUA UNIVERSITY, priority 2017, dated 2023)
